Reference: patent US20160355530A1, “HEPATITIS C INHIBITORS AND USES THEREOF” (AbbVie Inc., priority 2010, published 2016)
Read-outs that look alike come from different tables or passages of the source.

Columns and labels:
[1] = tested on: chimeric replicon with 2a-J6CF-derived NS5B; experiment: microbe, parasite or virus in culture; assay type: cell-based, HCV genotype 2a; conditions: Hepatitis C virus, read-out: 2a chimera 5% FBS EC50
[2] = target: T1, HCV NS5B polymerase 1b BK strain (Hepatitis C virus genotype 1b, UniProt P26663); experiment: HCV NS5B polymerase enzymatic inhibition assay, strain 1b BK; assay type: biochemical; conditions: enzyme, strain 1b BK; read-out: HCV Polymerase Strain 1b BK IC50
T1 construct: six-histidine tag; made in house; host or cells: E. coli
Method in brief: (§1)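 E. coli-expressed NS5B (residues 1-570, His-tagged) transcribed a 2.1 kb HCV 1b negative-strand 3′-end RNA template (5 nM) with 20 μM CTP, 20 μM ATP and 0.284 μM [3H]UTP for 3 h at 30° C. Spermine-precipitated RNA was filter-captured and counted by scintillation; IC50 from nonlinear regression.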

[3] = tested on: HCV 1b-BB7 subgenomic replicon; experiment: microbe, parasite or virus in culture; assay type: cell-based, HCV genotype 1b; conditions: Hepatitis C virus, stable replicon
[4] = tested on: chimeric replicon with genotype 3a NS5B; experiment: microbe, parasite or virus in culture; assay type: cell-based, HCV genotype 3a; conditions: Hepatitis C virus, read-out: 3a chimera 5% FBS EC50
[5] = tested on: chimeric replicon with genotype 2b NS5B; experiment: microbe, parasite or virus in culture; assay type: cell-based, HCV genotype 2b; conditions: Hepatitis C virus, read-out: 2b chimera 5% FBS EC50
[6] = tested on: HCV 1a-H77-C316Y transient subgenomic replicon in Huh-7 derived cell line; experiment: microbe, parasite or virus in culture; assay type: cell-based, HCV genotype 1a; conditions: for EC50: Hepatitis C virus, Huh-7, read-out: Transient Replicon 1a H77-C316Y 5% FBS EC50; for Transient Replicon Fold Resistance C316Y/1a: ratio of transient replicon EC50s, C316Y / 1a H77
Method: (§2) In addition to the stable replicon inhibition assays, transient replicon assays were performed. Transient replicons are identical to the 1a-H77 and 1a-H77-C316Y constructs, except they lack the Neo gene, making it impossible to establish stable cell lines. A T7 Megascript RNA synthesis kit (Ambion) was used to transcribe the HCV subgenomic RNA. The HCV RNA was then precipitated with lithium chloride according to manufacturer's instructions. The HCV subgenomic replicon RNA was transfected via electroporation into a Huh-7 derived cell line as described (Middleton T, et al. J. Virological Methods 2007; 145(2): 137-145). Transfected cells were diluted and plated in 96 well plates at 5×10^3 cells per well in DMEM. Four hours post-transfection, the wells from one plate were harvested for luciferase measurement. This plate provides a measure of the amount of translatable input RNA, and therefore transfection efficiency. To the wells of the remaining plates, a 3-fold dilution series of test compounds was added in DMSO (0.5% DMSO final concentration), and plates were incubated at 37° C., 5% CO2 in a humidified incubator for 4 days. After this period, the media was removed and the plates were washed with 100 μL phosphate-buffered saline per well. For the luciferase assay, 30 μL of Passive Lysis buffer (Promega) was added to each well, and then the plates were incubated for 15 minutes with rocking to lyse the cells. Luciferin solution (100 μL, Promega) was added to each well, and luciferase activity was measured with a Victor II luminometer (Perkin-Elmer). The EC50 values were calculated using GraphPad Prism 4 software.

[7] = tested on: HCV 1a-H77 transient subgenomic replicon in Huh-7 derived cell line; experiment: microbe, parasite or virus in culture; assay type: cell-based, HCV genotype 1a; conditions: Hepatitis C virus, Huh-7; transient replicon, 5% FBS; read-out: Transient Replicon 1a H77 5% FBS EC50
Method: as §2

[8] = tested on: HCV 1a-H77 subgenomic replicon; experiment: microbe, parasite or virus in culture; assay type: cell-based, HCV genotype 1a; conditions: Hepatitis C virus, stable replicon
[9] = tested on: chimeric replicon with genotype 4a NS5B; experiment: microbe, parasite or virus in culture; assay type: cell-based, HCV genotype 4a; conditions: Hepatitis C virus, read-out: 4a chimera 5% FBS EC50
[10] = target: T2, HCV NS5B polymerase 1a-H77 (Hepatitis C virus genotype 1a, UniProt P27958); experiment: biochemical; design: species or system HCV genotype 1a; conditions: enzyme, strain 1a H77; read-out: HCV Polymerase Strain 1a H77 IC50
T2 construct: six-histidine tag; made in house; host or cells: E. coli
Method in brief: as §1

[11] = target: T3, HCV NS5B polymerase 1a-H77-C316Y (Hepatitis C virus genotype 1a, UniProt P27958, C2736Y); experiment: biochemical; design: species or system HCV genotype 1a
T3 construct: six-histidine tag; made in house; host or cells: E. coli
Method in brief: as §1

[12] = tested on: HCV NS5B polymerase 1a-H77-C316Y; experiment: biochemical; design: species or system HCV genotype 1a; conditions: ratio of enzyme IC50s, 1a H77-C316Y / 1a H77
Method in brief: as §1

[13] = strain 1b BB7, 5% FBS + 40% human plasma, read-out: 1b BB7 5% FBS + 40% Human Plasma EC50
[14] = strain 1b BB7, 5% FBS, no human plasma, read-out: 1b BB7 5% FBS EC50
[15] = strain 1b BB7, 5% FBS, read-out: 1b BB7 5% FBS EC50
[16] = 5% FBS, absence of human plasma, read-out: Stable Replicon 1a H77 5% FBS EC50
[17] = strain 1a H77, 5% FBS + 40% human plasma, read-out: 1a H77 5% FBS + 40% Human Plasma EC50
[18] = strain 1a H77, 5% FBS, no human plasma, read-out: 1a H77 5% FBS EC50
[19] = strain 1a H77, 5% FBS, read-out: 1a H77 5% FBS EC50

T3 sequence (P27958 2421-2990 C2736Y): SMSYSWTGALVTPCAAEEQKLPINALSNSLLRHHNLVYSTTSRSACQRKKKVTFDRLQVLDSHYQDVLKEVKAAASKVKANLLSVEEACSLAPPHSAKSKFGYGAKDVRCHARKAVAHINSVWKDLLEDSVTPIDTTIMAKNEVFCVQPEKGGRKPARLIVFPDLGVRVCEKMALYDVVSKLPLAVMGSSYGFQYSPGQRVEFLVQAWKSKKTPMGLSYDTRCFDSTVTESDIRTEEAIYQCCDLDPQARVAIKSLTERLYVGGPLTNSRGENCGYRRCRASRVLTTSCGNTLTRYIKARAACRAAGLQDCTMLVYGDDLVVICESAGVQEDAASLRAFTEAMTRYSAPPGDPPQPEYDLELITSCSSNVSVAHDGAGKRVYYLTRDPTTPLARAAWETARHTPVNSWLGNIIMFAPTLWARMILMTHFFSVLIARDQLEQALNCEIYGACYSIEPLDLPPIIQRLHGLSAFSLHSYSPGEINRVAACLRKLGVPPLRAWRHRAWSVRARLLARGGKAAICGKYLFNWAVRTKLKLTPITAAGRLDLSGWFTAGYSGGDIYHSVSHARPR
T1 sequence (P26663 2420-2989): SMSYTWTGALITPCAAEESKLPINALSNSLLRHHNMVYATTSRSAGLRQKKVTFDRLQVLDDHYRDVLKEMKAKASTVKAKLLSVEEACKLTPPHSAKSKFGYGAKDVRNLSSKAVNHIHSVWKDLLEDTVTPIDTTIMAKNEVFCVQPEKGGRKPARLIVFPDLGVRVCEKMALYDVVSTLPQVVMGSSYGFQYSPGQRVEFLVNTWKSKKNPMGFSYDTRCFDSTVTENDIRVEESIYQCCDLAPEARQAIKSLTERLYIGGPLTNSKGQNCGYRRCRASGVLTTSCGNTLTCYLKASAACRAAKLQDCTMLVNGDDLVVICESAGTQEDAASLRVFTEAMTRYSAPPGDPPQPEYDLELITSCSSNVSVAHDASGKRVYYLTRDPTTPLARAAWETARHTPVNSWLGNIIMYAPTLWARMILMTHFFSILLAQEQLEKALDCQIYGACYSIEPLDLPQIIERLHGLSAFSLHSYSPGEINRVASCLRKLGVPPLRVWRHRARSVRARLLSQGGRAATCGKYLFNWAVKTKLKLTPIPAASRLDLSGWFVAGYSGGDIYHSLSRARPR
T2 sequence (P27958 2421-2990): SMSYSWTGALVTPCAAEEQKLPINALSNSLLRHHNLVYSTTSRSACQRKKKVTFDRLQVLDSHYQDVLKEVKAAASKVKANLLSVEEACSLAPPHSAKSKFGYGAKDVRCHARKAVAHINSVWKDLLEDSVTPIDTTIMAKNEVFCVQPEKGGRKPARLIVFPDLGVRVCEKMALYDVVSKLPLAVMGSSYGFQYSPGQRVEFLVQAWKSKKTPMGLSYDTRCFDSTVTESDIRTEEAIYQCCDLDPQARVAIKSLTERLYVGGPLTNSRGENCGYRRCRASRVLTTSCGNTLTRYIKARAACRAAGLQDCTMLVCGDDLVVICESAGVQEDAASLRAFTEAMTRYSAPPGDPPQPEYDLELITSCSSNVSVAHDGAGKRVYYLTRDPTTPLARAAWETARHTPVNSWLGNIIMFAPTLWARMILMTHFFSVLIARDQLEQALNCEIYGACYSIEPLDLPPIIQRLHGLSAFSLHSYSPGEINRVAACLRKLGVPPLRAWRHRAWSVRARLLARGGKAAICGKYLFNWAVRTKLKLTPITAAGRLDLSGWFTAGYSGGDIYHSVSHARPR

CS(=O)(=O)CCN(c1cc2oc(-c3ccc(F)cc3)c(C3=NOCCN3)c2cc1C1CC1)S(C)(=O)=O [Example 9, N-[5-cyclopropyl-3-(5,6-dihydro-4H-1,2,4-oxadiazin-3-yl)-2-(4-fluorophenyl)-1-benzofuran-6-yl]-N-[2-(methylsulfonyl)ethyl]methanesulfonamide]
EC50 [1]: 293 nM | IC50 [2]: 34 nM | EC50 [3, 13]: 138 nM | EC50 [3, 14]: 15 nM | EC50 [3, 15]: 15 nM | EC50 [4]: 22.6 nM | EC50 [5]: 298 nM | EC50 [6]: 57.5 nM | Transient Replicon Fold Resistance C316Y/1a [6]: 7 fold | EC50 [7]: 7.7 nM | EC50 [8, 16]: 8.4 nM | EC50 [8, 17]: 67 nM | EC50 [8, 18]: 8.4 nM | EC50 [8, 19]: 8.4 nM | EC50 [9]: 125 nM | IC50 [10]: 3.9 nM | IC50 [11]: 30 nM | C316Y/1a Fold Resistance [12]: 8 fold

CC1NC(c2c(-c3ccc(F)cc3)oc3cc(N(CCCCO)S(C)(=O)=O)c(C4CC4)cc23)=NO1 (stereo not drawn) [Example 11, N-[5-cyclopropyl-2-(4-fluorophenyl)-3-(5-methyl-4,5-dihydro-1,2,4-oxadiazol-3-yl)-1-benzofuran-6-yl]-N-(4-hydroxybutyl)methanesulfonamide]
EC50 [1]: 85 nM | IC50 [2]: 20 nM | EC50 [3, 13]: 199 nM | EC50 [3, 14]: 10.3 nM | EC50 [3, 15]: 10.3 nM | EC50 [4]: 16.6 nM | EC50 [5]: 98.5 nM | EC50 [6]: 34.4 nM | Transient Replicon Fold Resistance C316Y/1a [6]: 11 fold | EC50 [7]: 3 nM | EC50 [8, 16]: 8 nM | EC50 [8, 17]: 100 nM | EC50 [8, 18]: 8 nM | EC50 [8, 19]: 8 nM | EC50 [9]: 24.4 nM | IC50 [10]: 5.9 nM | IC50 [11]: 30 nM | C316Y/1a Fold Resistance [12]: 5 fold

CC1NC(c2c(-c3ccc(F)cc3)oc3cc(N(CCS(C)(=O)=O)S(C)(=O)=O)c(C4CC4)cc23)=NO1 (stereo not drawn) [Example 12, N-[5-cyclopropyl-2-(4-fluorophenyl)-3-(5-methyl-4,5-dihydro-1,2,4-oxadiazol-3-yl)-1-benzofuran-6-yl]-N-[2-(methylsulfonyl)ethyl]methanesulfonamide]
EC50 [1]: 285 nM | IC50 [2]: 17 nM | EC50 [3, 13]: 82 nM | EC50 [3, 14]: 11 nM | EC50 [3, 15]: 11 nM | EC50 [4]: 26 nM | EC50 [5]: 221 nM | EC50 [6]: 1220 nM | Transient Replicon Fold Resistance C316Y/1a [6]: 16 fold | EC50 [7]: 78 nM | EC50 [8, 16]: 42.6 nM | EC50 [8, 17]: 50 nM | EC50 [8, 18]: 42.6 nM | EC50 [8, 19]: 42.6 nM | EC50 [9]: 73.3 nM | IC50 [10]: 5.5 nM | IC50 [11]: 43 nM | C316Y/1a Fold Resistance [12]: 8 fold

CC1NC(c2c(-c3ccc(F)cc3)oc3cc(N(CC[S+](C)[O-])S(C)(=O)=O)c(C4CC4)cc23)=NO1 (stereo not drawn) [Example 13, N-[5-cyclopropyl-2-(4-fluorophenyl)-3-(5-methyl-4,5-dihydro-1,2,4-oxadiazol-3-yl)-1-benzofuran-6-yl]-N-[2-(methylsulfinyl)ethyl]methanesulfonamide]
EC50 [1]: 384 nM | IC50 [2]: 26 nM | EC50 [3, 13]: 146 nM | EC50 [3, 14]: 15.9 nM | EC50 [3, 15]: 15.9 nM | EC50 [4]: 42 nM | EC50 [5]: 307 nM | EC50 [6]: 134 nM | Transient Replicon Fold Resistance C316Y/1a [6]: 12 fold | EC50 [7]: 11.1 nM | EC50 [8, 16]: 14.8 nM | EC50 [8, 17]: 163 nM | EC50 [8, 18]: 14.8 nM | EC50 [8, 19]: 14.8 nM | EC50 [9]: 159 nM | IC50 [10]: 7.4 nM | IC50 [11]: 115 nM | C316Y/1a Fold Resistance [12]: 16 fold
